Data as given in the supplement of paper PMC12463676, “Small-molecule dissolution of stress granules by redox modulation benefits ALS models” (Nature Chemical Biology, 2025).

Tests used:
lipoamide = compound: NC(=O)CCCCC1CCSS1 [lipoamide]; assay: thermal stability z-score vs DMSO; higher = more thermally stabilized by treatment; conditions: HeLa, lipoamide concentration 100 µM
Procedure: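 Cellular thermal proteome profiling in HeLa cells. Cells were treated with 100 µM lipoamide for 1 h, with or without 1 mM arsenate for a further 1 h, then heated to ten temperatures (37-66.3 °C), and soluble protein was quantified by TMT mass spectrometry relative to 0.1% DMSO controls. The thermal stability score (sum of log2 fold changes minus the abundance score) was transformed to a z-score; mean of n = 3 experiments.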

potassium arsenate = compound: O=[As]([O-])(O)O.[K+] [potassium arsenate]; assay: as above; conditions: HeLa; arsenate concentration 1 mM
Procedure: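 Cellular thermal proteome profiling in HeLa cells treated with 1 mM arsenate for 1 h (DMSO pretreatment), heated to ten temperatures (37-66.3 °C). Soluble protein was quantified by TMT mass spectrometry relative to DMSO controls; the thermal stability score was transformed to a z-score; mean of n = 3 experiments.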

[1] = arsenate co-treatment: 1 mM arsenate 1 h
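Further: each temperature applied for 3 min, abundance score taken as mean log2 fold change at the two lowest temperatures, z-score obtained by mean subtraction and division by SD.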

UniProt Q9NRX1, sequence (Q9NRX1 whole entry): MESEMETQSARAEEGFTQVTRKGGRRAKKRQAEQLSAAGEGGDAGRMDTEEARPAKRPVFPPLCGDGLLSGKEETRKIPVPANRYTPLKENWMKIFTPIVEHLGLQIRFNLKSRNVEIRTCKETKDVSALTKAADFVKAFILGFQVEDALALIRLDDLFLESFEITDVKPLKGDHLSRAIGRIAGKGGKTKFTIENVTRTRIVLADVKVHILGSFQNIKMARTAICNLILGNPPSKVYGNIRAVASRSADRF
UniProt Q99613, sequence (Q99613 whole entry): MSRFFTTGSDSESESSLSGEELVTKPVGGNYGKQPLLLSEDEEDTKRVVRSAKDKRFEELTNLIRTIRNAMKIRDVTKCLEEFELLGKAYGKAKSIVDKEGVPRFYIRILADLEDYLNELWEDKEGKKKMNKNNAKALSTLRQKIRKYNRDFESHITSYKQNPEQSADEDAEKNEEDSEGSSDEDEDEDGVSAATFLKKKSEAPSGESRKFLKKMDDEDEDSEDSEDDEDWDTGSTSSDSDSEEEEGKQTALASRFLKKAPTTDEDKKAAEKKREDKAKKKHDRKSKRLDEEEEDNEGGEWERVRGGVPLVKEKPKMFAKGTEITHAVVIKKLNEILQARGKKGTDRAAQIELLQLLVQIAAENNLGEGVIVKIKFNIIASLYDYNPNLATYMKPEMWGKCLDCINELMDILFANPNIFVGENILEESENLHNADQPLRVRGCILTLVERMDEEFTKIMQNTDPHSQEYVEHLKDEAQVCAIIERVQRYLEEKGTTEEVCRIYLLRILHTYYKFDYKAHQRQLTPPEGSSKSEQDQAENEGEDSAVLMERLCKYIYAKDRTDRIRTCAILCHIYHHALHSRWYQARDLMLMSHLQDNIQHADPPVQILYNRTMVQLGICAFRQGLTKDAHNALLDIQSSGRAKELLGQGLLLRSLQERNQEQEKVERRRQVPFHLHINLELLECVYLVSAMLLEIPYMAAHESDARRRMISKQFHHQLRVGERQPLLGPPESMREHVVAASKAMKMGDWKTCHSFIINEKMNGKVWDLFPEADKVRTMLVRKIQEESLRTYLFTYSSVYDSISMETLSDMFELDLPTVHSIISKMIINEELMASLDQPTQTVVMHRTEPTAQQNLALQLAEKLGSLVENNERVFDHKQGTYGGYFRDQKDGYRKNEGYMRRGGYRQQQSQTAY
UniProt Q9H9A5, sequence (Q9H9A5 whole entry): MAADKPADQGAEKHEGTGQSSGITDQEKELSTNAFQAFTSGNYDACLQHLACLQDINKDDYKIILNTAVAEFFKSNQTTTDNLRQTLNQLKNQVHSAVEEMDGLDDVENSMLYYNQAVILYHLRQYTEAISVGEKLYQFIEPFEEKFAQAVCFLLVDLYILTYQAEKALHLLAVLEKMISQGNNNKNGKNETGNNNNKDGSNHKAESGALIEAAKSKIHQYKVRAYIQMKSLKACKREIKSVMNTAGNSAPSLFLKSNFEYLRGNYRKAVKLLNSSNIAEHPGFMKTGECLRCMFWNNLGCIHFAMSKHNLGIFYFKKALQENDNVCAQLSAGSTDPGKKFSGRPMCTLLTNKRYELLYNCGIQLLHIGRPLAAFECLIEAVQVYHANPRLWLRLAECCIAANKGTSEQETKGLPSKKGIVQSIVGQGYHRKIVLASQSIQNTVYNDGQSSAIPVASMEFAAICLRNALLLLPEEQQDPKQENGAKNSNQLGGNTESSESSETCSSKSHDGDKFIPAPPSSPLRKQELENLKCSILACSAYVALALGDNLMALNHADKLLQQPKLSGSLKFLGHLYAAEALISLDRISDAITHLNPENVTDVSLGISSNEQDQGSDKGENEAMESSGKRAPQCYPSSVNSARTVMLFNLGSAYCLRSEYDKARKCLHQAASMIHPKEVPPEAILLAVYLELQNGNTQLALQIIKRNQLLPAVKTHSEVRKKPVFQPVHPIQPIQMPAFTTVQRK
UniProt O00233, sequence (O00233 whole entry): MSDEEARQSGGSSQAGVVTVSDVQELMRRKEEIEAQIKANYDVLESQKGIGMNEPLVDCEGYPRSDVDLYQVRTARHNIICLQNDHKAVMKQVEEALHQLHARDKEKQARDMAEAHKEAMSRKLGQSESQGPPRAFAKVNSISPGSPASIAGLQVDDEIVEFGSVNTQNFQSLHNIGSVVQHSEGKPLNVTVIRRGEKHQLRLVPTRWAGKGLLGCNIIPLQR
UniProt O75934, sequence (O75934 whole entry): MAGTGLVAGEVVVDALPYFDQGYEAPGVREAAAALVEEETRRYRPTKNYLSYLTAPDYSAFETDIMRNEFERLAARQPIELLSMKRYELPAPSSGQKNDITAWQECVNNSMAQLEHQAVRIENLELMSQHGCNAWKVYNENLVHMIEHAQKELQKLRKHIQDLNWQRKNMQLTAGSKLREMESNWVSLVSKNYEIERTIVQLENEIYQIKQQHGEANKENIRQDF
UniProt Q08378, sequence (Q08378 whole entry): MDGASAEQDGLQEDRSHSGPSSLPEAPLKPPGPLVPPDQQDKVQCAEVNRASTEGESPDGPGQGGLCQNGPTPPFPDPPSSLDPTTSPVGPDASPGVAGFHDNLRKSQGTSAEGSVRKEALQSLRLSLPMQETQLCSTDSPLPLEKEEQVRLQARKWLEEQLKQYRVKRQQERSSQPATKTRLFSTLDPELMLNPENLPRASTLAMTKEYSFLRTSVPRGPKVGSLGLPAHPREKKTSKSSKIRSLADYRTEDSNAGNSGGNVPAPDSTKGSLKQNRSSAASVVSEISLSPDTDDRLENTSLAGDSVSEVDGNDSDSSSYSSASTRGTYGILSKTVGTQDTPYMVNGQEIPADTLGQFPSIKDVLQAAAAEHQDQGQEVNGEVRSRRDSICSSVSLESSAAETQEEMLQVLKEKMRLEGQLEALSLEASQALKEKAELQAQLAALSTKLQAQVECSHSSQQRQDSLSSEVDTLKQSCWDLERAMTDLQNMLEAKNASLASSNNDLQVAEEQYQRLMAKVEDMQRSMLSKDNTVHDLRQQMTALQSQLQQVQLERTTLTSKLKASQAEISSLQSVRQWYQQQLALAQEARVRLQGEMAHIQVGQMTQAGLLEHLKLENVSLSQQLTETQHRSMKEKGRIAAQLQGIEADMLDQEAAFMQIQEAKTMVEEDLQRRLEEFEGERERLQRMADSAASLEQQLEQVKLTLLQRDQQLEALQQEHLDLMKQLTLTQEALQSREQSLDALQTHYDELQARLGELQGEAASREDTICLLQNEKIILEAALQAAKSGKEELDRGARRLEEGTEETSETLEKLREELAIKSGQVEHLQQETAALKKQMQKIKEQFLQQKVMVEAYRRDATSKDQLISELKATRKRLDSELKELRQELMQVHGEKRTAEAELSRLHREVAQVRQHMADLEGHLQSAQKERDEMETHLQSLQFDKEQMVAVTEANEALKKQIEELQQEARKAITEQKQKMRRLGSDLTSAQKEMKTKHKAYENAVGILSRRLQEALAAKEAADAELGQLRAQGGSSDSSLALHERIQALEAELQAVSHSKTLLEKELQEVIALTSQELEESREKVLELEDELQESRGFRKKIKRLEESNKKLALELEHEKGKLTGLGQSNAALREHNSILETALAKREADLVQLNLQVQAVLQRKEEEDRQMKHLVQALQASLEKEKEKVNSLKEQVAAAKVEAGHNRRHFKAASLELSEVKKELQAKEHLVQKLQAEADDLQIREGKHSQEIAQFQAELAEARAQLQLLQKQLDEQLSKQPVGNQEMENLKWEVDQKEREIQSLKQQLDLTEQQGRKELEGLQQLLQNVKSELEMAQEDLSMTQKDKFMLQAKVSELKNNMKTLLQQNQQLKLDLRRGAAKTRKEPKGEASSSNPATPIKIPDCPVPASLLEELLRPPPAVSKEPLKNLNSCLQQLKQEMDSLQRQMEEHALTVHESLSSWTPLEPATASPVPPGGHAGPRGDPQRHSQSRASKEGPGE
UniProt P18859, sequence (P18859 whole entry): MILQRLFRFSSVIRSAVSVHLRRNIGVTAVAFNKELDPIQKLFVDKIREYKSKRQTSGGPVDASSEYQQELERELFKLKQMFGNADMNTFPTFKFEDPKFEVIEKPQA
UniProt Q5T447, sequence (Q5T447 whole entry): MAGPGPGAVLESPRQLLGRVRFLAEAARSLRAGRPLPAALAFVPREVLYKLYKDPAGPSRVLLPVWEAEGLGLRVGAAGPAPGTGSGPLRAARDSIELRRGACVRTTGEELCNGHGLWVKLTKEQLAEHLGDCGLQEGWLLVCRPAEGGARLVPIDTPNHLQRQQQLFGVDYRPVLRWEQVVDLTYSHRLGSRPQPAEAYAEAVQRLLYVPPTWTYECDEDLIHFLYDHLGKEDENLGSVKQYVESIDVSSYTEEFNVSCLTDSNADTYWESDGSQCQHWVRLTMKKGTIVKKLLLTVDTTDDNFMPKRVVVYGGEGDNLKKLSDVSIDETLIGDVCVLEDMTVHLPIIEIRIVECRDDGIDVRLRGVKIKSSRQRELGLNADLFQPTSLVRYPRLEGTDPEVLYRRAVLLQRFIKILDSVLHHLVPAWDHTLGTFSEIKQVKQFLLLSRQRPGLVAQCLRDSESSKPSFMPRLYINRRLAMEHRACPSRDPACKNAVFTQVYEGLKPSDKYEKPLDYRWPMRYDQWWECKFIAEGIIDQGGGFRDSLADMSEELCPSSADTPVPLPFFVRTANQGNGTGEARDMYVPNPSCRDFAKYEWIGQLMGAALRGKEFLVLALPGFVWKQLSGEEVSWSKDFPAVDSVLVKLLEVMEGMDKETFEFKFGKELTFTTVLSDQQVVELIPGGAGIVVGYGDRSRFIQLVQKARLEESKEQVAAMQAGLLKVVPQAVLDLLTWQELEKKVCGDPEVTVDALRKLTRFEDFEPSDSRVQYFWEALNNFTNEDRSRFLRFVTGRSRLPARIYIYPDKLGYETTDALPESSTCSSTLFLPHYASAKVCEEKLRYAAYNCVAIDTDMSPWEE
UniProt Q9BQE9, sequence (Q9BQE9 whole entry): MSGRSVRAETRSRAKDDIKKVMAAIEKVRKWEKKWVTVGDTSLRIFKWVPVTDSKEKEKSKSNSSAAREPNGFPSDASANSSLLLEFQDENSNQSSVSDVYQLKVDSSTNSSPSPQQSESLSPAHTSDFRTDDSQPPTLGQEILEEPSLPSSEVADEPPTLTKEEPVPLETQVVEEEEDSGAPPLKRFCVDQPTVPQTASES

Target	thermal stability z-score (lipoamide; [1])	thermal stability z-score (lipoamide; arsenate co-treatment: none)	thermal stability z-score (potassium arsenate)
PSMD9 (UniProt O00233)	-0.33	0.295	-0.281
TFB2M (UniProt Q9H5Q4)	-0.3	-0.261	0.215
HECTD3 (UniProt Q5T447)	-0.331	-0.0311	0.272
BLOC1S3 (UniProt Q6QNY0)	0.923	0.625	0.0424
MRPL54 (UniProt Q6P161)	-0.648	0.074	0.025
SYNRG (UniProt Q9UMZ2)	-0.398	-0.18	0.478
SLC9A6 (UniProt Q92581)	-0.145	-0.0692	-0.165
QRICH1 (UniProt Q2TAL8)	-0.132	-0.0369	0.0998
NDUFAB1 (UniProt O14561)	1.77	-0.297	0.86
PNO1 (UniProt Q9NRX1)	0.465	0.362	-0.698
EIF3C (UniProt Q99613)	-0.304	0.183	0.498
CUL2 (UniProt Q13617)	0.23	0.0777	-0.256
ELP2 (UniProt Q6IA86)	0.0198	-0.186	-0.24
AKT1 (UniProt P31749)	-0.698	-0.638	-1.01
NEURL4 (UniProt Q96JN8)	-0.125	0.0814	0.00875
BCL7B (UniProt Q9BQE9)	3.46	2.78	0.537
MYADM (UniProt Q96S97)	0.0599	0.353	1.34
CSK (UniProt P41240)	0.116	0.433	-0.218
HEBP1 (UniProt Q9NRV9)	0.436	0.615	-0.000791
RAB12 (UniProt Q6IQ22)	1.06	1.06	0.678
RNF20 (UniProt Q5VTR2)	-0.218	-0.026	-0.112
SERINC3 (UniProt Q13530)	-0.42	-0.641	-0.788
RILPL1 (UniProt Q5EBL4)	0.571	0.0309	1.21
C9ORF114 (UniProt Q5T280)	0.288	0.265	-0.288

Target	thermal stability z-score (lipoamide; [1])	thermal stability z-score (lipoamide; arsenate co-treatment: none)	thermal stability z-score (potassium arsenate)
RSU1 (UniProt Q15404)	-0.465	-0.369	-1.38
EPN2 (UniProt O95208)	1.13	0.804	-0.0882
ITPA (UniProt Q9BY32)	0.939	0.734	0.199
P4HTM (UniProt Q9NXG6)	0.0884	-0.262	-0.0889
CCND3 (UniProt P30281)	0.241	0.374	-0.0207
AUP1 (UniProt Q9Y679)	-0.649	-1.09	-0.628
DHX38 (UniProt Q92620)	-0.164	0.0335	-0.406
MTX3 (UniProt Q5HYI7)	0.929	0.179	-0.0757
DTX3L (UniProt Q8TDB6)	-0.78	-0.366	0.176
SIGMAR1 (UniProt Q99720)	0.596	0.0865	0.687
RPN2 (UniProt P04844)	-2.41	-1.79	0.141
COX20 (UniProt Q5RI15)	-0.11	-0.155	-0.19
RAB23 (UniProt Q9ULC3)	0.712	0.437	-0.626
CNOT10 (UniProt Q9H9A5)	-0.532	0.228	0.677
ALKBH6 (UniProt Q3KRA9)	0.205	0.0821	3.15
NDUFA10 (UniProt O95299)	-0.327	-0.199	-0.167
ARHGAP21 (UniProt Q5T5U3)	-0.57	-0.749	-1.3
TMEM131 (UniProt Q92545)	-1.03	0.061	0.83
GADD45GIP1 (UniProt Q8TAE8)	0.954	0.379	0.432
METTL1 (UniProt Q9UBP6)	0.351	0.439	0.207
PDPK1 (UniProt O15530)	0.174	0.131	0.451
RABEP2 (UniProt Q9H5N1)	0.129	0.15	1.26
LAMA5 (UniProt O15230)	-1.26	-0.93	0.045
ATP5J (UniProt P18859)	2.44	1.93	1.53

Target	thermal stability z-score (lipoamide; [1])	thermal stability z-score (lipoamide; arsenate co-treatment: none)	thermal stability z-score (potassium arsenate)
LRRC16A (UniProt Q5VZK9)	0.276	0.0854	1.26
ALDH4A1 (UniProt P30038)	-0.59	-0.14	1.19
CHMP6 (UniProt Q96FZ7)	0.476	0.273	0.217
MRPL37 (UniProt Q9BZE1)	-0.398	-0.403	-0.0807
ERCC6	1.08	0.347	-0.581
CCDC94 (UniProt Q9BW85)	-0.377	-0.352	-0.951
TRMT112 (UniProt Q9UI30)	0.215	-0.0845	-0.0169
DNAJA2 (UniProt O60884)	-0.922	-1.05	-0.26
ATP1B3 (UniProt P54709)	-0.0616	-0.138	-0.13
BNIP3 (UniProt Q12983)	0.679	0.193	2.44
MBD2 (UniProt Q9UBB5)	0.0418	0.0688	-0.294
ALDH7A1 (UniProt P49419)	1.36	0.584	0.994
BCAS2 (UniProt O75934)	0.913	0.747	0.558
CABLES1 (UniProt Q8TDN4)	0.124	0.218	-0.0215
GOLGA3 (UniProt Q08378)	0.291	0.128	0.587
CDC37 (UniProt Q16543)	0.928	0.616	0.222
TRIM26 (UniProt Q12899)	-0.368	-0.0684	0.295
CSTB (UniProt P04080)	0.399	0.0839	0.59
GANAB (UniProt Q14697)	-3.91	-3.13	0.696
TMEM23|SGMS1	0.177	-0.142	-0.151
RRM1 (UniProt P23921)	0.219	0.204	0.11
MTERF4 (UniProt Q7Z6M4)	-0.0828	0.0195	-0.0404
VWA8 (UniProt A3KMH1)	-0.654	-0.345	-0.561
